These results are taken from ChEMBL document CHEMBL1151189, “Antimicrobial chlorinated bibenzyls from the liverwort Riccardia marginata” (2004).

For assay [1], the system named is Bacillus subtilis. Put plainly: Antimicrobial activity against Bacillus subtilis at 30 ug/disk. Format: functional. As to conditions: read-out: IZ.
The subject of assay [2] is Candida albicans. Nature of the assay: Antimicrobial activity against Candida albicans at 30 ug/disk. It is filed as functional. As to conditions: read-out: IZ.
In assay [3] the test system is Trichophyton mentagrophytes. Nature of the assay: Antimicrobial activity against Trichophyton mentagrophytes at 30 ug/disk. It is filed as functional. As to conditions: read-out: IZ.
Assay [4] deals with Amorphotheca resinae. Nature of the assay: Antimicrobial activity against Cladosporium resinae at 30 ug/disk. Format: functional. As to conditions: read-out: IZ.
Assay [5] relates to Escherichia coli. Put plainly: Antimicrobial activity against Escherichia coli. It is filed as functional, organism-based.
The test system of assay [6] is Bacillus subtilis. Nature of the assay: Antimicrobial activity against Bacillus subtilis at 30 ug/5 mm disk. It is filed as functional.

Calls of active or inactive are those of the source. The rule behind the calls is not given here.

Regarding `Oc1cccc(CCc2ccccc2)c1Cl`, the zone of inhibition at 30 µg/disc in assay [1] was 2 mm; in assay [2], 2 mm; in assay [3] it was 3 mm; in assay [4], 0 mm. Moreover, the result in assay [5] was inactive.

Turning to `Oc1c(Cl)cc(Cl)c(CCc2ccccc2)c1Cl`, the zone of inhibition at 30 µg/disc was found to be 2 mm in assay [2], 7 mm in assay [3] and 1 mm in assay [4]. In addition, the outcome in assay [5] was inactive. Moreover, the “inhibition zone (IZ)” value in assay [6] is recorded as 2 mm.

In the case of `Oc1c(Cl)ccc(CCc2ccccc2)c1Cl`, the zone of inhibition at 30 µg/disc amounted to 2 mm in assay [1], 2 mm in assay [2], 12 mm in assay [3] and 2 mm in assay [4]. Further, the outcome in assay [5] was inactive.
